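1) Cells in 96-well plates. 2) Compound, 48 h, 5 concentrations. 3) Linear interpolation between surrounding doses. 4) Unreached endpoint = highest concentration. At the GI50, growth is halved.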 Active and inactive are the calls of the source. No stated cut-off is given here; in the data, active = GI50 up to about 1.1 µM and inactive = higher.
Assays:
Experiment in all cases: NCI anticancer screen, dose series, 48 h
KM12 = test system: KM12
NCI-H460 = test system: NCI-H460
SF-268 = test system: SF-268
K562 = test system: K562
SR = test system: SR
Malme-3M = test system: Malme-3M
SF-295 = test system: SF-295
SK-MEL-28 = test system: SK-MEL-28
Hs-578T = test system: Hs-578T
U-251 = test system: U-251
SK-MEL-5 = test system: SK-MEL-5
ACHN = test system: ACHN
786-0 = test system: 786-0
IGROV-1 = test system: IGROV-1
HL-60 = test system: HL-60
SW-620 = test system: SW-620
CAKI-1 = test system: CAKI-1
COLO 205 = test system: COLO 205
MDA-MB-435 = test system: MDA-MB-435
EKVX = test system: EKVX
MDA-N = test system: MDA-N
HT-29 = test system: HT-29
NCI-H522 = test system: NCI-H522
HCT-116 = test system: HCT-116
CCRF-CEM = test system: CCRF-CEM
NCI/ADR-RES = test system: NCI/ADR-RES
HCC 2998 = test system: HCC 2998
UACC-257 = test system: UACC-257
UACC-62 = test system: UACC-62
MOLT-4 = test system: MOLT-4
OVCAR-5 = test system: OVCAR-5
RPMI-8226 = test system: RPMI-8226
SN12C = test system: SN12C
NCI-H23 = test system: NCI-H23
A498 = test system: A498
LOX IMVI = test system: LOX IMVI
DU-145 = test system: DU-145
UO-31 = test system: UO-31
PC-3 = test system: PC-3
M14 = test system: M14
A549 = test system: A549
MCF7 = test system: MCF7
SNB-19 = test system: SNB-19
HOP-92 = test system: HOP-92
HCT-15 = test system: HCT-15
RXF 393 = test system: RXF 393
OVCAR-4 = test system: OVCAR-4

For `CSc1sc(C)cc1-c1nsc(=O)o1`, the GI50 (KM12) was > 100 µM (inactive), the GI50 (NCI-H460) was > 100 µM (inactive) and the GI50 (SF-268) was > 100 µM (inactive). For the same compound, the GI50 (K562) was > 100 µM (inactive), the GI50 (SR) was > 100 µM (inactive) and the GI50 (Malme-3M) was > 100 µM (inactive). The GI50 (SF-295) was > 100 µM (inactive), the GI50 (SK-MEL-28) was > 100 µM (inactive) and the GI50 (Hs-578T) was > 100 µM (inactive). For the same compound, the GI50 (U-251) was > 100 µM (inactive), the GI50 (SK-MEL-5) was > 100 µM (inactive) and the GI50 (ACHN) was > 100 µM (inactive). For the same compound, the GI50 (786-0) was > 100 µM (inactive), the GI50 (IGROV-1) was > 100 µM (inactive) and the GI50 (HL-60) was > 100 µM (inactive). The GI50 (SW-620) was > 100 µM (inactive), the GI50 (CAKI-1) was > 100 µM (inactive) and the GI50 (COLO 205) was > 100 µM (inactive). For the same compound, the GI50 (MDA-MB-435) was > 100 µM (inactive), the GI50 (EKVX) was > 100 µM (inactive) and the GI50 (MDA-N) was > 100 µM (inactive). For the same compound, the GI50 (HT-29) was > 100 µM (inactive), the GI50 (NCI-H522) was > 100 µM (inactive) and the GI50 (HCT-116) was > 100 µM (inactive). For the same compound, the GI50 (CCRF-CEM) was > 100 µM (inactive), the GI50 (NCI/ADR-RES) was > 100 µM (inactive) and the GI50 (HCC 2998) was > 100 µM (inactive). For the same compound, the GI50 (UACC-257) was > 100 µM (inactive), the GI50 (UACC-62) was > 100 µM (inactive) and the GI50 (MOLT-4) was > 100 µM (inactive). For the same compound, the GI50 (OVCAR-5) was > 100 µM (inactive), the GI50 (RPMI-8226) was > 100 µM (inactive) and the GI50 (SN12C) was > 100 µM (inactive). For the same compound, the GI50 (NCI-H23) was > 100 µM (inactive), the GI50 (A498) was > 100 µM (inactive) and the GI50 (LOX IMVI) was > 100 µM (inactive). The GI50 (DU-145) was > 100 µM (inactive), the GI50 (UO-31) was > 100 µM (inactive) and the GI50 (PC-3) was > 100 µM (inactive). The GI50 (M14) was > 100 µM (inactive), the GI50 (A549) was > 100 µM (inactive) and the GI50 (MCF7) was > 100 µM (inactive). For the same compound, the GI50 (SNB-19) was > 100 µM (inactive), the GI50 (HOP-92) was > 100 µM (inactive) and the GI50 (HCT-15) was over 100 µM. The GI50 (RXF 393) was > 100 µM (inactive) and the GI50 (OVCAR-4) was > 100 µM (inactive).
